The subject of this assay is P388 leukemia ip, CD2F1 mice, survival T/C. Nature of the assay: NCI In Vivo Anticancer Drug Screen. Data for tumor model P388 Leukemia (intraperitoneal) in CD2F1 (CDF1) mice. The following applies: endpoint: median survival time, higher = longer survival. The essentials: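 Mice carrying the transplanted tumor received test compound or vehicle. Survival was recorded in each group, and the value is the treated-group measurement divided by that of the vehicle-treated control group.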

Where [1] appears, read: dose: 50.0 mg/kg/injection, schedule: Q01DX009 (ip), vehicle: saline with Tween-80.
The mark [2] stands for this setting: dose: 100.0 mg/kg/injection, schedule: Q01DX009 (ip), vehicle: saline with Tween-80.
The mark [3] stands for this setting: dose: 200.0 mg/kg/injection, schedule: Q01DX009 (ip), vehicle: saline with Tween-80.
Where [4] appears, read: dose: 100.0 mg/kg/injection, schedule: Q01DX005 (ip), vehicle: saline with Tween-80.
Where [5] appears, read: dose: 50.0 mg/kg/injection, schedule: Q01DX005 (ip), vehicle: saline.
Where [6] appears, read: dose: 100.0 mg/kg/injection, schedule: Q01DX005 (ip), vehicle: saline.
Setting [7] is: dose: 200.0 mg/kg/injection, schedule: Q01DX005 (ip), vehicle: saline.
Where [8] appears, read: dose: 50.0 mg/kg/injection, schedule: Q01DX005 (ip), vehicle: Klucel (hydroxypropylcellulose) (HPC).
Where [9] appears, read: dose: 100.0 mg/kg/injection, schedule: Q01DX005 (ip), vehicle: Klucel (hydroxypropylcellulose) (HPC).
Setting [10] is: dose: 60.0 mg/kg/injection, schedule: Q01DX005 (ip), vehicle: saline with Tween-80.
Setting [11] is: dose: 120.0 mg/kg/injection, schedule: Q01DX005 (ip), vehicle: saline with Tween-80.

Several values for one entry are separate records, joined by “and”; a condition that tells them apart may be missing. Equal entries are not always repeated. Inconclusive results and toxic doses are left out.

Take `COCc1cccc2ccnc(COC)c12`: the T/C runs as follows: (dose: 100.0 mg/kg/injection, schedule: Q01DX001 (ip), vehicle: saline) 100 % of control; (dose: 200.0 mg/kg/injection, schedule: Q01DX001 (ip), vehicle: saline) 102 % of control; (dose: 400.0 mg/kg/injection, schedule: Q01DX001 (ip), vehicle: saline) 103 % of control.

Consider `O=C1Cc2ccccc2C2CC12` (configuration not stated), for which the T/C (dose: 100.0 mg/kg/injection, schedule: Q01DX001 (ip), vehicle: Klucel (hydroxypropylcellulose) (HPC)) is 98 % of control; the T/C (dose: 200.0 mg/kg/injection, schedule: Q01DX001 (ip), vehicle: Klucel (hydroxypropylcellulose) (HPC)) is 113 % of control; the T/C (dose: 400.0 mg/kg/injection, schedule: Q01DX001 (ip), vehicle: Klucel (hydroxypropylcellulose) (HPC)) is 111 % of control.

Consider `O=C(O)C(Cc1ccc(F)cc1)NC(=O)C(F)(F)F` (configuration not stated), for which the T/C is, setting by setting: under setting [1], 95 % of control; under setting [2], 95 % of control; under setting [3], 100 % of control.

On to `CN(c1ccccc1)c1c(Cl)c(=O)oc2c1ccc1nc(-c3ccccc3)sc12`, for which the T/C runs as follows: (dose: 50.0 mg/kg/injection, schedule: Q01DX005 (ip), vehicle: saline with Tween-80) 86 % of control; under setting [4], 90 % of control; (dose: 200.0 mg/kg/injection, schedule: Q01DX005 (ip), vehicle: saline with Tween-80) 86 % of control.

Consider `C=C1CCC2C(C)(CO)C(O)CCC2(C)C1CCC1=CCOC1=O` (configuration not stated), for which the T/C is 110 % of control (dose: 11.0 mg/kg/injection, schedule: Q01DX005 (ip), vehicle: Klucel (hydroxypropylcellulose) (HPC)); 99 % of control (dose: 22.0 mg/kg/injection, schedule: Q01DX005 (ip), vehicle: Klucel (hydroxypropylcellulose) (HPC)); 99 % of control (dose: 44.0 mg/kg/injection, schedule: Q01DX005 (ip), vehicle: Klucel (hydroxypropylcellulose) (HPC)); 97 % of control (dose: 88.0 mg/kg/injection, schedule: Q01DX005 (ip), vehicle: Klucel (hydroxypropylcellulose) (HPC)).

Take `O=C(O)N1CCc2c(sc3ccccc23)C1`: the T/C by setting is: (dose: 12.5 mg/kg/injection, schedule: Q01DX001 (ip), vehicle: Klucel (hydroxypropylcellulose) (HPC)) 103 % of control; (dose: 25.0 mg/kg/injection, schedule: Q01DX001 (ip), vehicle: Klucel (hydroxypropylcellulose) (HPC)) 98 % of control; (dose: 50.0 mg/kg/injection, schedule: Q01DX001 (ip), vehicle: Klucel (hydroxypropylcellulose) (HPC)) 100 % of control and 104 % of control.

`CS(=N)(=O)CCC(N)P(=O)(O)O` (configuration not stated): the T/C is 95 % of control under setting [5], 92 % of control under setting [6] and 100 % of control under setting [7].

On to `C1CC(N2CC2)CCC1N1CC1` (configuration not stated), for which the T/C by setting is: (dose: 1.56 mg/kg/injection, schedule: Q01DX009 (ip), vehicle: saline) 182 % of control; (dose: 3.12 mg/kg/injection, schedule: Q01DX009 (ip), vehicle: saline) 237 % of control.

Regarding `Cc1ccc2nc(-c3ccc4nc(-c5ccc(N=Nc6ccc(-c7nc8ccc(-c9nc%10ccc(C)c(S(=O)(=O)O)c%10s9)cc8s7)cc6)cc5)sc4c3)sc2c1S(=O)(=O)O`, the T/C by setting is: (dose: 50.0 mg/kg/injection, schedule: Q01DX009 (ip), vehicle: saline) 113 % of control and 116 % of control; (dose: 100.0 mg/kg/injection, schedule: Q01DX009 (ip), vehicle: saline) 116 % of control and 121 % of control; (dose: 200.0 mg/kg/injection, schedule: Q01DX009 (ip), vehicle: saline) 112 % of control and 123 % of control.

For the compound `C[Si](C)(C)OC=C1CCCCC1`, the T/C (dose: 50.0 mg/kg/injection, schedule: Q01DX009 (ip), vehicle: olive oil, sesame oil, peanut oil) was 113 % of control; the T/C (dose: 100.0 mg/kg/injection, schedule: Q01DX009 (ip), vehicle: olive oil, sesame oil, peanut oil) is 122 % of control; the T/C (dose: 200.0 mg/kg/injection, schedule: Q01DX009 (ip), vehicle: olive oil, sesame oil, peanut oil) was 108 % of control.

Turning to `O=C(CCS(=O)(=O)CCC(=O)C(c1ccccc1)c1ccccc1)C(c1ccccc1)c1ccccc1`, the T/C reads like this: (dose: 100.0 mg/kg/injection, schedule: Q04DX003 (ip), vehicle: saline) 97 % of control; (dose: 200.0 mg/kg/injection, schedule: Q04DX003 (ip), vehicle: saline) 94 % of control; (dose: 400.0 mg/kg/injection, schedule: Q04DX003 (ip), vehicle: saline) 90 % of control.

As to `CC(=O)Oc1cc2c(cc1Cc1ccc3c(c1)OCO3)OCO2`, the T/C by setting is: under setting [8], 101 % of control; under setting [9], 95 % of control; (dose: 200.0 mg/kg/injection, schedule: Q01DX005 (ip), vehicle: Klucel (hydroxypropylcellulose) (HPC)) 100 % of control.

With `CCc1c2cc3c(cc2cc2c4cc5c(cc4cc[n+]12)OCO5)OCO3` (tested in a mixture with another compound), the T/C runs as follows: (dose: 0.5 mg/kg/injection, schedule: Q01DX009 (ip), vehicle: Klucel (hydroxypropylcellulose) (HPC)) 117 % of control; (dose: 1.0 mg/kg/injection, schedule: Q01DX009 (ip), vehicle: Klucel (hydroxypropylcellulose) (HPC)) 121 % of control; (dose: 5.0 mg/kg/injection, schedule: Q01DX009 (ip), vehicle: Klucel (hydroxypropylcellulose) (HPC)) 153 % of control and 174 % of control.

As for `CSc1nc(N)c(C(=O)Nc2cccc3ccccc23)s1`, the T/C (dose: 50.0 mg/kg/injection, schedule: Q01DX009 (ip), vehicle: Klucel (hydroxypropylcellulose) (HPC)) is 100 % of control; the T/C (dose: 100.0 mg/kg/injection, schedule: Q01DX009 (ip), vehicle: Klucel (hydroxypropylcellulose) (HPC)) is 97 % of control; the T/C (dose: 200.0 mg/kg/injection, schedule: Q01DX009 (ip), vehicle: Klucel (hydroxypropylcellulose) (HPC)) was 97 % of control.

As to `Nc1cccc2c1-c1ccccc1C2=O`, the T/C runs as follows: (dose: 6.25 mg/kg/injection, schedule: Q01DX005 (ip), vehicle: saline with Tween-80) 98 % of control; (dose: 12.5 mg/kg/injection, schedule: Q01DX005 (ip), vehicle: saline with Tween-80) 98 % of control; (dose: 25.0 mg/kg/injection, schedule: Q01DX005 (ip), vehicle: saline with Tween-80) 92 % of control; under setting [4], 92 % of control.

Take `O=C1c2ccncc2C(=O)N1CCO`: the T/C was 103 % of control (dose: 60.0 mg/kg/injection, schedule: Q01DX005 (ip), vehicle: saline); 104 % of control (dose: 120.0 mg/kg/injection, schedule: Q01DX005 (ip), vehicle: saline); 101 % of control (dose: 240.0 mg/kg/injection, schedule: Q01DX005 (ip), vehicle: saline).

As to `CC1(C)CC(OC(=O)c2c3ccccc3c3ccc4cccc5ccc2c3c54)CC(C)(C)N1O`, the T/C runs as follows: under setting [1], 91 % of control; under setting [2], 91 % of control; under setting [3], 90 % of control.

As to `O=C(CNSc1ccc([N+](=O)[O-])cc1[N+](=O)[O-])OCc1ccccc1`, the T/C reads like this: (dose: 50.0 mg/kg/injection, schedule: Q01DX005 (ip), vehicle: saline + Tween-80 + alcohol) 100 % of control; (dose: 100.0 mg/kg/injection, schedule: Q01DX005 (ip), vehicle: saline + Tween-80 + alcohol) 106 % of control; (dose: 200.0 mg/kg/injection, schedule: Q01DX005 (ip), vehicle: saline + Tween-80 + alcohol) 97 % of control.

Take `CCC(C)(CC)OC(N)=O`: the T/C was 100 % of control (dose: 25.0 mg/kg/injection, schedule: Q01DX009 (ip), vehicle: saline with Tween-80); 91 % of control under setting [1]; 109 % of control under setting [2]; 105 % of control under setting [3].

For the compound `CCOC(=O)c1ccccc1-n1nnc(C#N)c1N`, the T/C is 105 % of control under setting [8] and 115 % of control under setting [9].

`O=S(=O)(Nc1ccc(Cl)cc1C(F)(F)F)c1ccc(F)cc1`: the T/C was 100 % of control under setting [10] and 110 % of control under setting [11].

Regarding `O=C(Nc1cc(-c2ccccc2)[nH]n1)c1ccccc1Cl`, the T/C under setting [10] was 100 % of control; the T/C under setting [11] is 93 % of control; the T/C (dose: 240.0 mg/kg/injection, schedule: Q01DX005 (ip), vehicle: saline with Tween-80) is 93 % of control.

With `Cc1ccc(S(=O)(=O)C(=O)N2CCN(C(=O)S(=O)(=O)c3ccc(C)cc3)CC2)cc1`, the T/C is 100 % of control under setting [1], 107 % of control under setting [2] and 109 % of control under setting [3].

For the compound `CN(N=O)C(=O)NCC1OC(n2cnc3c(=O)[nH]cnc32)C(O)C1O` (configuration not stated), the T/C was 100 % of control under setting [5], 105 % of control under setting [6] and 121 % of control under setting [7].

(Values after PubChem BioAssay AID330 (DTP/NCI, 2004).)
